Measurements reported in patent US6608086B2, “Dihydropyridines and new uses thereof” (Synaptic Pharmaceutical Corporation, priority 1993, dated 2003).
Structures can show the parent of a compound that is named as a salt. Where two headings read alike, the source gives them in different places.

What was measured:
[1] = target: T1, α2C receptor (Homo sapiens, UniProt P18825); experiment: Competition binding, [3H]rauwolscine, human α2C receptor
T1 construct: host or cells: LM(tk-) cells, line L-α2C
T1 sequence (P18825 1-462): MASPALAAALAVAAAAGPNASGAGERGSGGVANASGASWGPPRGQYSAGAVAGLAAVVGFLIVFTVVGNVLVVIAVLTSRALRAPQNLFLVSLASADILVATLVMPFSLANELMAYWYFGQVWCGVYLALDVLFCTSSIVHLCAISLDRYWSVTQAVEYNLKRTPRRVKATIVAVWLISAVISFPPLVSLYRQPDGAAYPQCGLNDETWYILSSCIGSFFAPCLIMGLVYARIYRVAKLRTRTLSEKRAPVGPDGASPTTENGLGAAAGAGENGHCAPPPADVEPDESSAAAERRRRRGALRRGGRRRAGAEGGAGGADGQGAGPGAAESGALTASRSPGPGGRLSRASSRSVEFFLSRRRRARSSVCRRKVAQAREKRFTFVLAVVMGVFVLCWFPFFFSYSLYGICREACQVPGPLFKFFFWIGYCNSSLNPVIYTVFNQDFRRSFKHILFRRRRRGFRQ
How it was run: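 Equilibrium displacement of [3H]rauwolscine (0.5 nM) measured on membranes from stably transfected LM(tk−) lines, one per α2 subtype, in glycylglycine buffer at pH 7.6. Nonspecific binding set by 10 μM phentolamine; separation by filtration.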

[2] = target: T2, L-type calcium channel (Rattus norvegicus, UniProt P22002); experiment: Competition binding of [3H]nitrendipine to membrane fragments of rat cardiac muscle
T2 construct: membrane fragments of rat cardiac muscle; from tissue; host or cells: rat cardiac muscle membranes
T2 sequence (P22002 whole entry, other chains not shown, the tested form may be a part): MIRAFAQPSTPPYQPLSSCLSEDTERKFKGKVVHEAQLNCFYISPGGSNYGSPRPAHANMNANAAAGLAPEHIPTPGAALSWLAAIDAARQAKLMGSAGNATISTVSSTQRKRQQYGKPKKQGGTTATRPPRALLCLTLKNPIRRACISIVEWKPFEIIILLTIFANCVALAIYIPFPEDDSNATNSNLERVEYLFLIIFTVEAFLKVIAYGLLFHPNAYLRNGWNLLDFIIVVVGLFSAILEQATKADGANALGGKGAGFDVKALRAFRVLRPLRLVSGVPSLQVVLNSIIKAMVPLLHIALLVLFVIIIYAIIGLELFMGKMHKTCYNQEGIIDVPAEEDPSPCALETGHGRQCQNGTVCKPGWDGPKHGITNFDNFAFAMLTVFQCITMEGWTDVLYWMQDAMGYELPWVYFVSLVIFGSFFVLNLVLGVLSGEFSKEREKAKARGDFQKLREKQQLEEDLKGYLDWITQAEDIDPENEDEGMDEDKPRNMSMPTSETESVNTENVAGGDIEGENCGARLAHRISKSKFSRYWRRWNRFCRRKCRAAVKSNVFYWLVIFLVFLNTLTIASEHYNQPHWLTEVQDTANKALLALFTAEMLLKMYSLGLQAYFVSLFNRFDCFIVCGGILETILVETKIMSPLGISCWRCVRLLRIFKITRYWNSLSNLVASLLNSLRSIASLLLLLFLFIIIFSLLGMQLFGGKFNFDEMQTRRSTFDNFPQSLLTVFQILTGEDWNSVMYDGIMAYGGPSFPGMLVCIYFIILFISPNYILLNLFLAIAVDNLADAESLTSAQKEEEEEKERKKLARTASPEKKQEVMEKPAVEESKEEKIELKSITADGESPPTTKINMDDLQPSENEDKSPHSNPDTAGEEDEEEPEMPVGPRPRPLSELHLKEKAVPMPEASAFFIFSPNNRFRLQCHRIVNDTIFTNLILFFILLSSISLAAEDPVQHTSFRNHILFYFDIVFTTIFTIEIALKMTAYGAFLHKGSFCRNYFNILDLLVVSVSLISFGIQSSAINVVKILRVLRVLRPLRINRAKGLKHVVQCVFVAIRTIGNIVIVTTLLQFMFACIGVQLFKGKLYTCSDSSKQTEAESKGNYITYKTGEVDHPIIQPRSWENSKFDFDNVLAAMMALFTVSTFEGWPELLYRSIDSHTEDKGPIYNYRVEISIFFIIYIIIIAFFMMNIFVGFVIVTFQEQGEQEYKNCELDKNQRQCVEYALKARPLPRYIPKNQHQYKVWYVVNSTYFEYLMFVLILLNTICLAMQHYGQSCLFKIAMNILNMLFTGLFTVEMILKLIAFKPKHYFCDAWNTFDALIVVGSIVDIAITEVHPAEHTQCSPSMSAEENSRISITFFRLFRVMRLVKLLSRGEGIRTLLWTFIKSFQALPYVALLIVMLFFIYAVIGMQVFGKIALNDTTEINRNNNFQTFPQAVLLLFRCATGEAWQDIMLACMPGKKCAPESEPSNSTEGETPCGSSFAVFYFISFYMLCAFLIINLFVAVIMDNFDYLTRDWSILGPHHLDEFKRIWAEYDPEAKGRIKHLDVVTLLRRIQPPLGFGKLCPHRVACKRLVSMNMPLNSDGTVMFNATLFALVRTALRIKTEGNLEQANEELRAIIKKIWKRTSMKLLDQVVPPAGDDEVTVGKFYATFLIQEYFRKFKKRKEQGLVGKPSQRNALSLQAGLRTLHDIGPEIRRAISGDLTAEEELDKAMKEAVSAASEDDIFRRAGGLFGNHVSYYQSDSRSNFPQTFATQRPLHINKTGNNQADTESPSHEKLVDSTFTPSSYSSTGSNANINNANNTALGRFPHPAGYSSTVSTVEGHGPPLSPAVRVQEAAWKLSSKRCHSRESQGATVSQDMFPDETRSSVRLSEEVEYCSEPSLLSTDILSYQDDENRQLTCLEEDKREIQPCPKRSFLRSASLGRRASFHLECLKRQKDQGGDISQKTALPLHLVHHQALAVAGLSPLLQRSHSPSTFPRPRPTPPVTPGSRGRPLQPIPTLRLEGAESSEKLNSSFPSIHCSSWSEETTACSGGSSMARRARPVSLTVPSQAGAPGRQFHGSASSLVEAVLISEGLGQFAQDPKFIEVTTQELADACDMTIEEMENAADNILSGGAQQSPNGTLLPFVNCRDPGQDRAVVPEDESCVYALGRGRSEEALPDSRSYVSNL
T2 sequence (P54290 25-944 partner limits assumed, other chains not shown): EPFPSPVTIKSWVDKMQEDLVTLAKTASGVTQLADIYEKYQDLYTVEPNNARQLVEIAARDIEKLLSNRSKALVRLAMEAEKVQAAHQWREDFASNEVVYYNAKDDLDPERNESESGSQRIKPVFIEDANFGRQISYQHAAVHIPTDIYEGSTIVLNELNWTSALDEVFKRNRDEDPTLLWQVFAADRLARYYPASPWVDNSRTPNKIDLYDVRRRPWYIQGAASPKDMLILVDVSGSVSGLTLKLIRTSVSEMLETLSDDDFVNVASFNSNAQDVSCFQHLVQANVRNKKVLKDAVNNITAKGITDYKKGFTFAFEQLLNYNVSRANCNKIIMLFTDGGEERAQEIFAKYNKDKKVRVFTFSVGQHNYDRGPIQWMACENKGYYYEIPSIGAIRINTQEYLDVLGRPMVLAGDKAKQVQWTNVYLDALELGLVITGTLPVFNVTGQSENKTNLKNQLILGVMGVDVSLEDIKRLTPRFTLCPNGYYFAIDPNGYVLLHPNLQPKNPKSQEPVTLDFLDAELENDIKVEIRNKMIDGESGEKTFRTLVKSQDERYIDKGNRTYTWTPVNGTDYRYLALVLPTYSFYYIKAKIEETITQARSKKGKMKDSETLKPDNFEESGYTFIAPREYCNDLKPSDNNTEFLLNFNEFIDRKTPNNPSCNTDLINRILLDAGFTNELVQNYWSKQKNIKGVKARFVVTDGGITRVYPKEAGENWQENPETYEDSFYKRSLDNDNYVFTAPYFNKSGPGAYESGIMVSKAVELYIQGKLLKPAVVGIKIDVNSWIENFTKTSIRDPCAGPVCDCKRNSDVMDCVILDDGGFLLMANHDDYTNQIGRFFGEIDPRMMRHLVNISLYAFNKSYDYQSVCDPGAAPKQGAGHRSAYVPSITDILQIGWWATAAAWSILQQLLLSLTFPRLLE
T2 sequence (P54290 945-1091 partner limits assumed, other chains not shown): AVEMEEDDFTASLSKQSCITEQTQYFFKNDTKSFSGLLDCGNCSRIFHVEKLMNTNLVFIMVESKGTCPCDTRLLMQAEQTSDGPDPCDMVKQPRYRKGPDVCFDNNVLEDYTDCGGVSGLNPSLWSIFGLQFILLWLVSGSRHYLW

[3] = target: T3, α1A Human Adrenergic Receptor (Homo sapiens, UniProt P25100); experiment: Radioligand binding, [3H]prazosin, cloned human α1A adrenergic receptor; settings: pKi alpha-1 1a
T3 construct: The entire coding region of α1A (1719 bp); expressed in transfected cells
T3 sequence (P25100 1-572): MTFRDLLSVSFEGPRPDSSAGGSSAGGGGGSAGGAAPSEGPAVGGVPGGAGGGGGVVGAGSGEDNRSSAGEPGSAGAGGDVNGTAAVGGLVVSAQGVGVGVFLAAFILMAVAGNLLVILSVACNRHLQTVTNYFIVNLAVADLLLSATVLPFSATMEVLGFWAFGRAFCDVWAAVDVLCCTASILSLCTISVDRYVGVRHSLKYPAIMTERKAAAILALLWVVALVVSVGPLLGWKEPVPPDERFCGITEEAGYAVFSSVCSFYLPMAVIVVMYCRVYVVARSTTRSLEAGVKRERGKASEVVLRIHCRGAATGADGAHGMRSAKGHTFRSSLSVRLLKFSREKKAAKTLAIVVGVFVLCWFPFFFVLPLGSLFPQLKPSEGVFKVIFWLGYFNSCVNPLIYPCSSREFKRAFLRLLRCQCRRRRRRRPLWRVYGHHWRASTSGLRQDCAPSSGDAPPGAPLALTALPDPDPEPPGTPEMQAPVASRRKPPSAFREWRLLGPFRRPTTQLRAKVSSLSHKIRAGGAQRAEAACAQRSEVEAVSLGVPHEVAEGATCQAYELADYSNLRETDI
How it was run: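 Membranes from LM(tk−) cells transfected with cloned human α1A receptor, prepared in 50 mM Tris-HCl, 1 mM MgCl2, 0.1% ascorbic acid pH 7.5, were incubated with 0.5 nM [3H]prazosin at 37° C for 20 min. Nonspecific binding was defined with 10 μM phentolamine; bound ligand was separated by GF/B filtration.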

[4] = pKi alpha-2 2c, [3H]rauwolscine, human α2C receptor, LM(tk−) cells
[5] = [3H]nitrendipine, rat cardiac muscle membrane fragments, L-type calcium channel, read-out: pKi Ca (converted)
[6] = [3H]prazosin, cloned human α1A receptor, LM(tk−) cell membranes
[7] = [3H]rauwolscine, LM(tk-) cell line L-α2C, SEM and n in lines below, read-out: pKi alpha-2 2c (converted)
[8] = [3H]nitrendipine, rat cardiac muscle membranes, SEM and n in lines below, read-out: pKi Ca (converted)
[9] = [3H]prazosin, cloned human receptor in LM(tk-) cell membranes, SEM and n in lines below

| Compound | Ki ([1]; pKi alpha-2 2c) [µM] | Ki ([2]; pKi Ca) [µM] | Ki [3] [µM] | also measured |
| --- | --- | --- | --- | --- |
| COC(=O)C1=C(C)NC(C)=C(C(=O)NCCCN2CCC(c3ccccc3)(c3ccccc3)CC2)C1c1ccc(-c2ccccc2)cc1 (stereo not drawn) [Example 7] | 1.23 | 0.871 | 1.17 | – |
| CCC1=C(C(N)=O)C(c2ccc([N+](=O)[O-])cc2)C(C(=O)NCCCN2CCC(C#N)(c3ccccc3)CC2)=C(CC)N1 (racemic) [(±)-102, 5-Carboxamido-3-{N-[(4-cyano-4-phenylpiperidin-1-ly)propyl]carboxamido-2,6-diethyl-1,4-dihydro-4-(4-nitrophenyl)pyridine hydrochloride hydrate] | – | – | – | Ki [1, 4]: 1.74 µM; Ki [2, 5]: 72.4 µM; Ki [3, 6]: 3.47 µM |
| COC(=O)C1=C(C)NC(C)=C(C(=O)NCCCN2CCC(c3ccccc3)(c3ccccc3)CC2)C1c1ccc2c(c1)OCO2 (stereo not drawn) [Example 11, 1,4-Dihydro-3-methoxycarbonyl-2,6-dimethyl-4-(3,4-methylenedioxyphenyl)-5-(N-(3-(4,4-diphenylpiperidin-1-yl)propyl)carboxamido)pyridine] | 0.575 | 2.29 | 0.302 | – |
| COC(=O)C1=C(C)NC(C)=C(C(=O)NCCCN2CCC(c3ccccc3)(c3ccccc3)CC2)C1c1ccc([N+](=O)[O-])c(OC)c1 (stereo not drawn) [Example 29, 1,4-Dihydro-3-methoxycarbonyl-4-(3-methoxy-4-nitrophenyl)-2,6-dimethyl-5-(N-(3-(4,4-diphenylpiperidin-1-yl)propyl)carboxamido)pyridine] | – | – | – | Ki [1, 7]: 0.398 µM; Ki [2, 8]: 13.8 µM; Ki [3, 9]: 0.263 µM |
| CC1=C(C(N)=O)C(c2ccc([N+](=O)[O-])cc2)C(C(=O)NCCN2CCC(c3ccccc3)(c3ccccc3)CC2)=C(C)N1 (stereo not drawn) [Example 54, 5-Carboxamide-1,4-dihydro-2,6-dimethyl-4-(4-nitrophenyl)-3-{N-[2-(4,4-diphenylpiperidin-1-yl)ethyl]}carboxamidopyridine hydrochloride hydrate] | – | – | – | Ki [1, 7]: 0.158 µM; Ki [2, 8]: 58.9 µM; Ki [3, 9]: 0.347 µM |
| COC(=O)C1=C(C)NC(C)=C(C(=O)NCCCN2CCC(c3ccccc3)(c3ccccc3)CC2)C1c1cc(OC)c(OC)c(OC)c1 (stereo not drawn) [Example 27] | 1.2 | 0.589 | 0.38 | – |
| COC(=O)C1=C(C)NC(C)=C(C(=O)NCCCN2CCC(c3ccccc3)(c3ccccc3)CC2)C1c1ccc(Br)cc1 (stereo not drawn) [Example 15, 4-(4-Bromophenyl)-1,4-dihydro-3-methoxycarbonyl-2,6-dimethyl-5-(N-(3-(4,4-diphenylpiperidin-1-yl)propyl)carboxamido)pyridine] | 1.12 | 7.24 | 0.417 | – |
| CCC1=C(C(=O)NCCCN2CCC(c3ccccc3)(c3ccccc3)CC2)C(c2ccc(N)cc2)C(C(=O)OC)=C(C)N1 (stereo not drawn) [Example 114, 4-(4-Aminophenyl)-2-ethyl-1,4-dihydro-5-methoxycarbonyl-6-methyl-3-(N-(3-(4,4-diphenylpiperidin-1-yl)propyl)carboxamido)-pyridine] | 0.724 | 2.88 | 0.55 | – |
| CCC1=C(C(N)=O)C(c2ccc([N+](=O)[O-])cc2)C(C(=O)NCCCN2CCC(C#N)(c3ccccc3)CC2)=C(CC)N1 (single isomer, unassigned; (+)) [(+)-102] | – | – | – | Ki [1, 4]: 3.31 µM; Ki [2, 5]: 1000 µM; Ki [3, 6]: 2.88 µM |
| CC1=C(C(=O)NCCCN2CCC(c3ccccc3)(c3ccccc3)CC2)C(c2ccc([N+](=O)[O-])cc2)c2c([nH]c(=O)[nH]c2=O)N1 (stereo not drawn) [Example 64] | – | – | – | Ki [1, 7]: 0.479 µM; Ki [2, 8]: 97.7 µM; Ki [3, 9]: 0.49 µM |
| COC(=O)C1=C(C)NC(C)=C(C(=O)NCCCN2CCC(c3ccccc3)(c3ccccc3)CC2)C1c1ccc(C(F)(F)F)cc1 (stereo not drawn) [Example 1] | 0.17 | 6.61 | 2.57 | – |
| COC(=O)C1=C(C)NC(C)=C(C(=O)NCCCN2CCC(c3ccccc3)(c3ccccc3)CC2)C1c1ccc(C(C)C)cc1 (stereo not drawn) [Example 18, 1,4-Dihydro-4-(4-isopropylphenyl)-3-methoxycarbonyl-2,6-dimethyl-5-(N-(3-(4,4-diphenylpiperidin-1-yl)propyl)carboxamido)pyridine] | 0.933 | 0.162 | 0.891 | – |
| CCC1=C(C(=O)NCCCN2CCC(c3ccccc3)(c3ccccc3)CC2)C(c2ccc([N+](=O)[O-])cc2)C(C(=O)OC)=C(C)N1 (stereo not drawn) [Example 73, 2-Ethyl-1,4-dihydro-5-methoxycarbonyl-6-methyl-4-(4-nitro) phenyl-3-(N-(3-(4,4-diphenylpiperidin-1-yl)propyl))carboxamidopyridine] | 0.275 | 0.759 | 0.204 | – |
| COC(=O)C1=C(C)NC(C)=C(C(=O)NCCCN2CCC(c3ccccc3)(c3ccccc3)CC2)C1C1CCCCC1 (stereo not drawn) [Example 6] | 0.24 | 1.58 | 1.12 | – |
| COC(=O)C1=C(C)NC(C)=C(C(=O)NCCCN2CCC(c3ccccc3)(c3ccccc3)CC2)C1Cc1ccccc1 (stereo not drawn) [Example 8, 4-Benzyl-1,4-dihydro-3-methoxycarbonyl-2,6-dimethyl-5-(N-(3-(4,4-diphenylpiperidin-1-yl)propyl)carboxamido)pyridine] | – | – | – | Ki [1, 7]: 0.339 µM; Ki [2, 8]: 11.5 µM; Ki [3, 9]: 0.38 µM |
| COC(=O)C1=C(C)NC(C)=C(C(=O)NCCCN2CCC(c3ccccc3)(c3ccccc3)CC2)C1c1ccc(C(=O)OC)cc1 (stereo not drawn) [Example 25, 1,4-Dihydro-3-methoxycarbonyl-4-(4-methoxycarbonylphenyl)-2,6-dimethyl-5-(N-(3-(4,4-diphenylpiperidin-1-yl)propyl)carboxamide)pyridine] | 1.02 | 1.15 | 0.646 | – |
| CCC1=C(C(N)=O)C(c2ccc(S(C)(=O)=O)cc2)C(C(=O)NCCCN2CCC(c3ccccc3)(c3ccccc3)CC2)=C(C)N1 (stereo not drawn) [Example 118, 3-Carboxamido-2-ethyl-1,4-dihydro-4-(4-methanesulfonylphenyl)-6-methyl-3-(N-(3-(4,4-diphenylpiperidin-1-yl)propyl)carboxyamido)-pyridine] | – | – | – | Ki [1, 4]: 2.24 µM; Ki [2, 5]: 1000 µM; Ki [3, 6]: 2.19 µM |
| CCC1=C(C(N)=O)C(c2ccc([N+](=O)[O-])cc2)C(C(=O)NCCCN2CCC(O)(c3ccccc3)CC2)=C(CC)N1 (stereo not drawn) [Example 100, 5-Carboxamido-2,6-diethyl-1,4-dihydro-3-{N-(3-(4-hydroxy-4-phenylpiperidin-1-yl)propyl]}carboxamido-4-(4-nitrophenyl)pyridine hydrochloride hydrate] | – | – | – | Ki ([1]; [3H]rauwolscine, human α2C receptor, LM(tk−) cells, read-out: pKi alpha-2 2c (converted)): 1.78 µM; Ki [2, 5]: 1000 µM; Ki [3, 6]: 4.9 µM |
| COC(=O)C1=C(C)NC(C)=C(C(=O)NCCCN2CCC(c3ccccc3)(c3ccccc3)CC2)C1c1ccc(Cl)c([N+](=O)[O-])c1 (stereo not drawn) [Example 16, 4-(4-Chloro-3-nitrophenyl)-1,4-dihydro-3-methoxycarbonyl-2,6-dimethyl-5-(N-(3-(4,4-diphenylpiperidin-1-yl)propyl)carboxamido)pyridine] | 0.38 | 0.813 | 0.427 | – |
| CCOC(=O)C1=C(CC(=O)NCCCN2CCC(c3ccccc3)(c3ccccc3)CC2)NC(C)=C(C(=O)OC)C1c1ccc([N+](=O)[O-])cc1 (stereo not drawn) [Example 89, 3-Ethoxycarbonyl-1,4-dihydro-5-methoxycarbonyl-6-methyl-4-(4-nitro)phenyl-2-(N-(3-(4,4,-diphenylpiperidin-1-yl)propyl)carboxamido)methylpyridine, fumarate salt] | 0.501 | 0.813 | 0.347 | – |
